Patent US11541028B2, “Peptide pharmaceuticals for treatment of NASH and other disorders” (Mederis Diabetes LLC, priority 2018, dated 2023)
Square brackets hold non-standard residues; d marks the D form. Peptide text beside a SMILES is read from it. * marks the point of attachment. GlcA(β-D,1-O-dodecyl) = CCCCCCCCCCCCO[C@@H]1O[C@H](C(=O)*)[C@@H](O)[C@H](O)[C@H]1O; αMeF = C[C@](N)(Cc1ccccc1)C(=O)O; Ac4c = NC1(C(=O)O)CCC1; Aib = CC(C)(N)C(=O)O

Tests used:
Glucagon R = biological target: T1, Glucagon R (Homo sapiens, UniProt P47871); test: Cerep cellular assay, stimulation of cAMP levels, glucagon (human, cloned into CHO cells); type: cell-based; settings: human receptor in CHO cells (Cerep)
T1 construct: host or cells: CHO cells
T1 sequence (P47871 26-477): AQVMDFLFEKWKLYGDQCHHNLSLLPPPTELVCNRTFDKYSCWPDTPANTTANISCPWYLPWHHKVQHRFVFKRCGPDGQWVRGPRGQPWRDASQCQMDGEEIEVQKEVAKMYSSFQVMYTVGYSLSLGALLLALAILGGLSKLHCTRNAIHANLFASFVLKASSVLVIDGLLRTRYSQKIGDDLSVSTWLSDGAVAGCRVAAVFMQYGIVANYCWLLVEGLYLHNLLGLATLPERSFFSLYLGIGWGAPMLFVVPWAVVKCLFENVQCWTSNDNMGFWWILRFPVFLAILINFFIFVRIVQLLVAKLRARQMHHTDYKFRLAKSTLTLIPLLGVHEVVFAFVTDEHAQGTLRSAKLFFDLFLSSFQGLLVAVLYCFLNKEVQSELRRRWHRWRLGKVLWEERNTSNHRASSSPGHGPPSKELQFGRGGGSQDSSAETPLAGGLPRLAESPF
Method: (§1) Compounds were weighed precisely in an amount of about 1 mg and assayed in standard cellular assays (Cerep SA). The readout was the amount of cAMP generated in the cells treated with the test compounds, in either agonist or antagonist mode. […] The assays are described in Chicchi et al., J. Biol. Chem., 272:7765-7769 (1997) and Runge et al., Br. J. Pharmacol., 138:787-794 (2003).

GLP-1 R = biological target: T2, GLP-1 R (Mus musculus, UniProt O35659); test: Cerep cellular assay, stimulation of cAMP levels, GLP-1 (murine cell line); type: cell-based; design: key: §means superagonist; n.c. means EC50 not calculable; settings: for EC50 GLP-1 R (nM): n.c. = EC50 not calculable
T2 construct: GLP-1 (murine cell line) cellular assays
T2 sequence (O35659 22-463): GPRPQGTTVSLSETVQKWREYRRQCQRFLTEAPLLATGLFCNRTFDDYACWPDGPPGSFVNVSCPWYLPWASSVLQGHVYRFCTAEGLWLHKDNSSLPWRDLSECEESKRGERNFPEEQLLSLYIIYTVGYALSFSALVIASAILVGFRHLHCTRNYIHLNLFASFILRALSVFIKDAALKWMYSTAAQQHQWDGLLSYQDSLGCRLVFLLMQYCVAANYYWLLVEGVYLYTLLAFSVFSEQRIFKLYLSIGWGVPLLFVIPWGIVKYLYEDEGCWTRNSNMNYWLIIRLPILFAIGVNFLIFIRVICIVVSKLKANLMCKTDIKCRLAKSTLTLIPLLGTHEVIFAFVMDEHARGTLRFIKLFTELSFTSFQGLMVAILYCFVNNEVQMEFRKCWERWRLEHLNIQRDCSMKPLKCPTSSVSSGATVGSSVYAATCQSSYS
Method: as §1

[1] = incubation in human plasma at 30° C, in 4 hours

SMILES	EC50 GLP-1 R (nM) (GLP-1 R)	further results
CCCCCCCCCCCCO[C@@H]1O[C@H](C(=O)NCCCC[C@H](NC(=O)C(C)(C)NC(=O)[C@H](CC(=O)O)NC(=O)[C@H](CC(C)C)NC(=O)[C@H](Cc2ccc(O)cc2)NC(=O)[C@H](CCCCN)NC(=O)[C@H](CO)NC(=O)[C@H](Cc2ccc(O)cc2)NC(=O)[C@H](CC(=O)O)NC(=O)[C@H](CO)NC(=O)[C@@H](NC(=O)[C@](C)(Cc2ccccc2)NC(=O)[C@@H](NC(=O)CNC(=O)[C@H](CCC(N)=O)NC(=O)C(C)(C)NC(=O)[C@@H](N)Cc2c[nH]cn2)[C@@H](C)O)[C@@H](C)O)C(N)=O)[C@@H](O)[C@H](O)[C@H]1O [EU-A391] (H-H[Aib]QGT[αMeF]TSDYSKYLD[Aib]K(GlcA(β-D,1-O-dodecyl))-NH2; N-terminus assumed)		GCGR cellular response (Glucagon R): did not change
CCCCCCCCCCCCO[C@@H]1O[C@H](C(=O)NCCCC[C@H](NC(=O)[C@H](CC(=O)O)NC(=O)[C@H](CC(C)C)NC(=O)[C@H](Cc2ccc(O)cc2)NC(=O)[C@H](CCCCN)NC(=O)[C@H](CO)NC(=O)[C@H](Cc2ccc(O)cc2)NC(=O)[C@H](CC(=O)O)NC(=O)[C@H](CO)NC(=O)[C@@H](NC(=O)[C@H](Cc2ccccc2)NC(=O)[C@@H](NC(=O)CNC(=O)[C@H](CCC(N)=O)NC(=O)C(C)(C)NC(=O)[C@@H](N)Cc2c[nH]cn2)[C@@H](C)O)[C@@H](C)O)C(=O)NC2(C(N)=O)CCC2)[C@@H](O)[C@H](O)[C@H]1O [EU-A522] (H-H[Aib]QGTFTSDYSKYLDK(GlcA(β-D,1-O-dodecyl))[Ac4c]-NH2; N-terminus assumed)	n.c.	
CCCCCCCCCCCCO[C@@H]1O[C@H](C(=O)NCCCC[C@H](NC(=O)[C@H](CO)NC(=O)[C@H](CC(=O)O)NC(=O)[C@H](CC(C)C)NC(=O)[C@H](Cc2ccc(O)cc2)NC(=O)[C@H](CCCCN)NC(=O)[C@H](CO)NC(=O)[C@H](Cc2ccc(O)cc2)NC(=O)[C@H](CC(=O)O)NC(=O)[C@H](CO)NC(=O)[C@@H](NC(=O)[C@H](Cc2ccccc2)NC(=O)[C@@H](NC(=O)CNC(=O)[C@H](CCC(N)=O)NC(=O)C(C)(C)NC(=O)[C@@H](N)Cc2c[nH]cn2)[C@@H](C)O)[C@@H](C)O)C(=O)NC(C)(C)C(N)=O)[C@@H](O)[C@H](O)[C@H]1O [EU-A527]	n.c.	
CCCCCCCCCCCCO[C@@H]1O[C@H](C(=O)NCCCC[C@H](NC(=O)[C@H](CO)NC(=O)[C@H](CC(=O)O)NC(=O)[C@H](CC(C)C)NC(=O)[C@H](Cc2ccc(O)cc2)NC(=O)[C@H](CCCCN)NC(=O)[C@H](CO)NC(=O)[C@H](Cc2ccc(O)cc2)NC(=O)[C@H](CC(=O)O)NC(=O)[C@H](CO)NC(=O)[C@@H](NC(=O)[C@H](Cc2ccccc2)NC(=O)[C@@H](NC(=O)CNC(=O)[C@H](CCC(N)=O)NC(=O)C(C)(C)NC(=O)[C@@H](N)Cc2c[nH]cn2)[C@@H](C)O)[C@@H](C)O)C(=O)N[C@@H](CCCNC(=N)N)C(=O)NC(C)(C)C(N)=O)[C@@H](O)[C@H](O)[C@H]1O [EU-A529]	n.c.	
CCCCCCCCCCCCCCO[C@@H]1O[C@H](C(=O)NCCCC[C@H](NC(=O)[C@H](CCCNC(=N)N)NC(=O)[C@H](CO)NC(=O)[C@H](CC(=O)O)NC(=O)[C@H](CC(C)C)NC(=O)[C@H](Cc2ccc(O)cc2)NC(=O)[C@H](CCCCN)NC(=O)[C@H](CO)NC(=O)[C@H](Cc2ccc(O)cc2)NC(=O)[C@H](CC(=O)O)NC(=O)[C@H](CO)NC(=O)[C@@H](NC(=O)[C@H](Cc2ccccc2)NC(=O)[C@@H](NC(=O)CNC(=O)[C@H](CCC(N)=O)NC(=O)C(C)(C)NC(=O)[C@@H](N)Cc2c[nH]cn2)[C@@H](C)O)[C@@H](C)O)C(=O)NC(C)(C)C(N)=O)[C@@H](O)[C@H](O)[C@H]1O [EU-A535]		efficacy class at GLP-1 R (mark in EC50 cell) (GLP-1 R): §4800
CCCCCCCCCCCCCCO[C@@H]1O[C@H](C(=O)NCCCC[C@@H]2NC(=O)[C@H](CCC(N)=O)NC(=O)[C@@H](NC(=O)[C@H](CC(=O)O)NC(=O)[C@H](CC(C)C)NC(=O)[C@H](Cc3ccc(O)cc3)NC(=O)[C@H](CCCCN)NC(=O)[C@H](CO)NC(=O)[C@H](Cc3ccc(O)cc3)NC(=O)[C@H](CC(=O)O)NC(=O)[C@H](CO)NC(=O)[C@@H](NC(=O)[C@H](Cc3ccccc3)NC(=O)[C@@H](NC(=O)CNC(=O)[C@H](CCC(N)=O)NC(=O)C(C)(C)NC(=O)[C@@H](N)Cc3c[nH]cn3)[C@@H](C)O)[C@@H](C)O)CCC(=O)NCCCC[C@@H](C(N)=O)NC(=O)[C@H](C)NC2=O)[C@@H](O)[C@H](O)[C@H]1O [EU-A540]	n.c.	
CC[C@H](C)[C@H](NC(=O)[C@H](Cc1ccccc1)NC(=O)[C@H](CCC(=O)O)NC(=O)[C@H](CCCCN)NC(=O)[C@H](C)NC(=O)[C@H](C)NC(=O)[C@H](CCC(N)=O)NC(=O)CNC(=O)[C@H](CCC(=O)O)NC(=O)[C@H](CC(C)C)NC(=O)[C@H](Cc1ccc(O)cc1)NC(=O)[C@H](CO)NC(=O)[C@H](CO)NC(=O)[C@@H](NC(=O)[C@H](CC(=O)O)NC(=O)[C@H](CO)NC(=O)[C@@H](NC(=O)[C@H](Cc1ccccc1)NC(=O)[C@@H](NC(=O)CNC(=O)[C@H](CCC(=O)O)NC(=O)[C@H](C)NC(=O)[C@@H](N)Cc1c[nH]cn1)[C@@H](C)O)[C@@H](C)O)C(C)C)C(=O)N[C@@H](C)C(=O)N[C@@H](Cc1c[nH]c2ccccc12)C(=O)N[C@@H](CC(C)C)C(=O)N[C@H](C(=O)N[C@@H](CCCCN)C(=O)NCC(=O)N[C@@H](CCCNC(=N)N)C(N)=O)C(C)C [GLP-1(7-36)]		cleavage of compound in human plasma (compound signal versus time) [1]: essentially complete cleavage
